Source: patent publication US11090304B2 (Amgen Inc., priority 2018, dated 2021)

What was measured:
[1] = biological target: GDP-bound KRAS protein (aa 1-169), containing both G12C and C118A amino acid substitutions (Homo sapiens, UniProt P01116, C118A/G12C); experiment: Coupled nucleotide exchange assay (SOS-mediated, AlphaScreen); format: biochemical; details: 5 min compound pre-incubation
[2] = system: Phosphorylation of ERK1/2 in MIA PaCa-2 cells; experiment: Phospho-ERK1/2 MSD assay in MIA PaCa-2 cells; format: cell-based; details: Homo sapiens, MIA PaCa-2, 2 h, read-out: p-ERK IC50 (2 h; MIA PaCa-2), 2 h compound treatment
In short: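 MSD electrochemiluminescence readout of phospho-ERK1/2 in whole-cell lysates, IC50 by 4-parameter logistic fit. Compound titrations were applied for 2 or 4 h at 37 °C, 5% CO2, followed by 10 ng/mL EGF stimulation for 10 min before lysis.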

Chain of GDP-bound KRAS protein (aa 1-169), containing both G12C and C118A amino acid substitutions (P01116 1-169 isoform P01116-2 G12C/C118A): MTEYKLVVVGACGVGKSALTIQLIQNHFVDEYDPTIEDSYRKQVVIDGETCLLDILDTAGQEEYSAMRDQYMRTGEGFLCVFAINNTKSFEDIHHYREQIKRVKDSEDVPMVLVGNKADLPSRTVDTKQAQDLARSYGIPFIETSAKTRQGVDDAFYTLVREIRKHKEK

SMILES	Coupled exchange IC50 (5 min) [1]	IC50 [2] [nM]
C=CC(=O)N1CCN(c2nc(=O)n(-c3nccnc3C(C)C)c3nc(-c4ccccc4F)c(F)cc23)[C@@H](C)C1 [Example 57-2, 6-fluoro-7-(2-fluorophenyl)-4-((2S)-2-methyl-4-(2-propenoyl)-1-piperazinyl)-1-(3-(2-propanyl)-2-pyrazinyl)pyrido[2,3-d]pyrimidin-2(1H)-one]	0.74 | nda μM	300
C=CC(=O)N1CCN(c2nc(=O)n(-c3nccnc3C(C)C)c3nc(-c4c(O)cccc4F)c(F)cc23)[C@@H](C)C1 [Example 57-3, 6-fluoro-7-(2-fluoro-6-hydroxyphenyl)-4-((2S)-2-methyl-4-(2-propenoyl)-piperazinyl)-1-(3-(2-propanyl)-2-pyrazinyl)pyrido[2,3-d]pyrimidin-2(1H)-one]	0.664 | nda μM	241
C=CC(=O)N1CCN(c2nc(=O)n(-c3c(C(C)C)ncnc3C(C)C)c3nc(-c4c(O)cccc4F)c(F)cc23)[C@@H](C)C1 [Example 57-4, 1-(4,6-di(2-propanyl)-5-pyrimidinyl)-6-fluoro-7-(2-fluoro-6-hydroxyphenyl)-4-((2S)-2-methyl-4-(2-propenoyl)-1-piperazinyl)pyrido[2,3-d]pyrimidin-2(1H)-one]	0.1 | nda μM	61
C=CC(=O)N1CCN(c2nc(=O)n(-c3c(C(C)C)ncnc3C(C)C)c3nc(-c4ccccc4F)c(F)cc23)[C@@H](C)C1 [Example 57-5, 1-(4,6-di(2-propanyl)-5-pyrimidinyl)-6-fluoro-7-(2-fluorophenyl)-4-((2S)-2-methyl-4-(2-propenoyl)-1-piperazinyl)pyrido[2,3-d]pyrimidin-2(1H)-one]	0.221 | nda μM	107
C=CC(=O)N1CCN(c2nc(=O)n(-c3ncccc3C(C)C)c3nc(-c4ccccc4F)c(F)cc23)[C@@H](C)C1 [Example 57-9, 6-fluoro-7-(2-fluorophenyl)-4-((2S)-2-methyl-4-(2-propenoyl)-1-piperazinyl)-1-(3-(2-propanyl)-2-pyridinyl)pyrido[2.3-d]pyrimidin-2(1H)-one]	0.752 | nda μM	239
C=CC(=O)N1CCN(c2nc(=O)n(-c3ncccc3C(C)C)c3nc(-c4c(O)cccc4F)c(F)cc23)[C@@H](C)C1 [Example 57-10, 6-fluoro-7-(2-fluoro-6-hydroxyphenyl)-4-((2S)-2-methyl-4-(2-propenoyl)-1-piperazinyl)-1-(3-(2-propanyl)-2-pyridinyl)pyrido[2,3-d]pyrimidin-2(1H)-one]	0.452 | nda μM	105
C=CC(=O)N1CCN(c2nc(=O)n(-c3scnc3C(C)C)c3nc(-c4c(O)cccc4F)c(F)cc23)[C@@H](C)C1 [Example 57-11, 6-fluoro-7-(2-fluoro-6-hydroxyphenyl)-4-((2S)-2-methyl-4-(2-propenoyl)-1-piperazinyl)-1-(4-(2-propanyl)-1,3-thiazol-5-yl)pyrido[2,3-d]pyrimidin-2(1H)-one]	0.24 | nda μM	265
C=CC(=O)N1CCN(c2nc(=O)n(-c3scnc3C(C)C)c3nc(-c4ccccc4F)c(F)cc23)[C@@H](C)C1 [Example 57-12, 6-fluoro-7-(2-fluorophenyl)-4-((2S)-2-methyl-4-(2-propenoyl)-1-piperazinyl)-1-(4-(2-propanyl)-1,3-thiazol-5-yl)pyrido[2,3-d]pyrimidin-2(1H)-one]	0.472 | nda μM	539
C=CC(=O)N1CCN(c2nc(=O)n(-c3c(C)cccc3C(C)(C)C)c3nc(-c4c(O)cccc4F)c(F)cc23)[C@@H](C)C1 [Example 57-17, 6-fluoro-7-(2-fluoro-6-hydroxyphenyl)-1-(2-methyl-6-(2-methyl-2-propanyl)phenyl)-4-((2S)-2-methyl-4-(2-propenoyl)-1-piperazinyl)pyrido[2,3-d]pyrimidin-2(1H)-one]	0.574 | nda μM	1440
C=CC(=O)N1CCN(c2nc(=O)n(-c3ccccc3C(C)(C)C)c3nc(-c4c(O)cccc4F)c(F)cc23)[C@@H](C)C1 [Example 58-1, 6-Fluoro-7-(2-fluoro-6-hydroxyphenyl)-1-(2-(2-methyl-2-propanyl)phenyl)-4-((2S)-2-methyl-4-(2-propenoyl)-1-piperazinyl)pyrido[2,3-d]pyrimidin-2(1H)-one]	0.661 | nda μM	696
C=CC(=O)N1CCN(c2nc(=O)n(-c3c(C(F)(F)F)ccnc3C(C)C)c3nc(-c4c(O)cccc4F)c(F)cc23)[C@@H](C)C1 [Example 58-3, 6-fluoro-7-(2-fluoro-6-hydroxyphenyl)-4-((2S)-2-methyl-4-(2-propenoyl)-1-piperazinyl)-1-(2-(2-propanyl)-4-(trifluoromethyl)-3-pyridinyl)pyrido[2,3-d]pyrimidin-2(1H)-one]	0.261 | nda μM	181
C=CC(=O)N1CCN(c2nc(=O)n(-c3c(C)ccnc3C(C)C)c3nc(-c4ccccc4F)c(F)cc23)[C@@H](C)C1 [Example 58-4, 6-fluoro-7-(2-fluorophenyl)-1-(4-methyl-2-(2-propanyl)-3-pyridinyl)-4-((2S)-2-methyl-4-(2-propenoyl)-1-piperazinyl)pyrido[2,3-d]pyrimidin-2(1H)-one]	0.395 | nda μM	183
C=CC(=O)N1CCN(c2nc(=O)n(-c3c(C)ccnc3C(C)C)c3nc(-c4cc(O)ccc4F)c(F)cc23)[C@@H](C)C1 [Example 58-5, 6-fluoro-7-(2-fluoro-5-hydroxyphenyl)-1-(4-methyl-2-(2-propanyl)-3-pyridinyl)-4-((2S)-2-methyl-4-(2-propenoyl)-1-piperazinyl)pyrido[2,3-d]pyrimidin-2(1H)-one]	0.484 | nda μM	1990
C=CC(=O)N1CCN(c2nc(=O)n(-c3c(C)ccnc3C(C)C)c3nc(-c4cc(N)ccc4F)c(F)cc23)[C@@H](C)C1 [Example 58-6]	0.623 | nda μM	842
C=CC(=O)N1CCN(c2nc(=O)n(-c3c(C)ccnc3C(C)C)c3nc(-c4cc(O)cc(Cl)c4Cl)c(F)cc23)[C@@H](C)C1 [Example 58-7, 7-(2,3-dichloro-5-hydroxyphenyl)-6-fluoro-1-(4-methyl-2-(2-propanyl)-3-pyridinyl)-4-((2S)-2-methyl-4-(2-propenoyl)-1-piperazinyl)pyrido[2,3-d]pyrimidin-2(1H)-one]	0.072 | nda μM	1990
C=CC(=O)N1CCN(c2nc(=O)n(-c3c(C)ccnc3C(C)C)c3nc(-c4cc(N)ccc4Cl)c(F)cc23)[C@@H](C)C1 [Example 58-8, 7-(5-amino-2-chlorophenyl)-6-fluoro-1-(4-methyl-2-(2-propanyl)-3-pyridinyl)-4-((2S)-2-methyl-4-(2-propenoyl)-1-piperazinyl)pyrido[2,3-d]pyrimidin-2(1H)-one]	0.393 | nda μM	437
C=CC(=O)N1CCN(c2nc(=O)n(-c3c(C)ccnc3C(C)C)c3nc(-c4c(O)cccc4Cl)c(F)cc23)[C@@H](C)C1 [Example 58-9, 7-(2-chloro-6-hydroxyphenyl)-6-fluoro-1-(4-methyl-2-(2-propanyl)-3-pyridinyl)-4-((2S)-2-methyl-4-(2-propenoyl)-1-piperazinyl)pyrido[2,3-d]pyrimidin-2(1H)-one]	0.095 | nda μM	220
C=CC(=O)N1CCN(c2nc(=O)n(-c3c(C)ccnc3C(C)C)c3nc(-c4ccc(F)cc4F)c(F)cc23)[C@@H](C)C1 [Example 58-10, 7-(2,4-difluorophenyl)-6-fluoro-1-(4-methyl-2-(2-propanyl)-3-pyridinyl)-4-((2S)-2-methyl-4-(2-propenoyl)-1-piperazinyl)pyrido[2,3-d]pyrimidin-2(1H)-one]	0.445 | nda μM	433
C=CC(=O)N1CCN(c2nc(=O)n(-c3c(C)ncnc3C(C)C)c3nc(-c4ccccc4F)c(F)cc23)[C@@H](C)C1 [Example 58-12, 6-fluoro-7-(2-fluorophenyl)-1-(4-methyl-6-(2-propanyl)-5-pyrimidinyl)-4-((2S)-2-methyl-4-(2-propenoyl)-1-piperazinyl)pyrido[2,3-d]pyrimidin-2(1H)-one]	0.953 | nda μM	508
C=CC(=O)N1CCN(c2nc(=O)n(-c3c(C)cccc3C3CC3)c3nc(-c4c(O)cccc4F)c(F)cc23)[C@@H](C)C1 [Example 58-13, 1-(2-cyclopropyl-6-methylphenyl)-6-fluoro-7-(2-fluoro-6-hydroxyphenyl)-4-((2S)-2-methyl-4-(2-propenoyl)-1-piperazinyl)pyrido[2,3-d]pyrimidin-2(1H)-one]	0.809 | nda μM	263
C=CC(=O)N1CCN(c2nc(=O)n(-c3c(C(C)C)ccnc3C)c3nc(-c4ccccc4F)c(F)cc23)[C@@H](C)C1 [Example 58-16, 6-fluoro-7-(2-fluorophenyl)-1-(2-methyl-4-(2-propanyl)-3-pyridinyl)-4-((2S)-2-methyl-4-(2-propenoyl)-1-piperazinyl)pyrido[2,3-d]pyrimidin-2(1H)-one]	0.553 | nda μM	556
C=CC(=O)N1CCN(c2nc(=O)n(-c3c(C4CC4)ccnc3C)c3nc(-c4c(O)cccc4F)c(F)cc23)[C@@H](C)C1 [Example 58-19, 1-(4-cyclopropyl-2-methyl-3-pyridinyl)-6-fluoro-7-(2-fluoro-6-hydroxyphenyl)-4-((2S)-2-methyl-4-(2-propenoyl)-1-piperazinyl)pyrido[2,3-d]pyrimidin-2(1H)-one]	0.44 | nda μM	957
